Assay results reported in patent US20220087983A1, “ACTIVATING PYRUVATE KINASE R” (FORMA Therapeutics, Inc., priority 2020, published 2022).
Values joined by “and” are separate entries in the source; they are usually repeats but may differ in a detail not shown here. Equal entries are not always repeated.

Experiments:
[1] = cited from earlier work
[2] = Phase 1: hematologic and hemolytic parameters in SCD patients; assay type: in vivo, human; conditions: blinded 300 mg Compound 1/placebo QD, individual patients Pt 1-3
From the text: Laboratory changes relative to pretreatment for each pt in the MD cohort as of Jul. In 2 of 3 SCD MD-1 pts treated with Compound 1/placebo (currently blinded), Hb increased by >1 g/dL, % reticulocytes decreased, and markers of hemolysis were improved after 14 days of treatment (compared to pre-treatment levels). Hematologic parameters returned to pre-treatment levels 4 to 7 days post-treatment (data not shown) without clinical AEs. […]

SMILES | steady state whole blood AUC higher in HbSC than HbSS genotype patients ([1]; HbSC n=11, HbSS n=220) [%] | steady state whole blood Cmax higher in HbSC than HbSS genotype patients ([1]; HbSC n=11, HbSS n=220) [%] | steady state plasma AUC higher in HbSC than HbSS genotype patients ([1]; human, in vivo) [%] | steady state plasma Cmax higher in HbSC than HbSS genotype patients ([1]; human, in vivo) [%] | increase of AUC in plasma with a high-fat, high-calorie meal ([1]; relative to fasted state) [%] | increase of AUC in whole blood with a high-fat, high-calorie meal ([1]; relative to fasted state) [%] | increase of Cmax in plasma with a high-fat, high-calorie meal ([1]; relative to fasted state) [%] | increase of Cmax in whole blood with a high-fat, high-calorie meal ([1]; relative to fasted state) [%] | Hemoglobin ([2]; Day 7 (on Tx)) | Indirect Bilirubin ([2]; Day 7 (on Tx)) | Reticulocytes, % ([2]; Day 7 (on Tx)) | Hemoglobin ([2]; Day 14/15 (EOT)) | Indirect Bilirubin ([2]; Day 14/15 (EOT)) | Reticulocytes, % ([2]; Day 14/15 (EOT))
CC(C)n1nccc1-c1ncccc1COc1cccc(O)c1C=O [voxelotor, 2-hydroxy-6-((2-(1-isopropyl-1H-pyrazol-5-yl)pyridin-3-yl)methoxy)benzaldehyde] | 50 | 45 | 23 | 15 | 42 | 42 | 95 | 45 |  |  |  |  |  | 
O=C([C@H](CO)c1ccccc1)N1CC2=C(C1)CN(S(=O)(=O)c1cnc3c(c1)OCCO3)C2 [Compound 1/Placebo] |  |  |  |  |  |  |  |  | 7.9 g/dL and 8.8 g/dL | 2.5 mg/dL and 0.9 mg/dL and 0.8 mg/dL | 6.8% and 5.8% | 7.5 g/dL and 9.2 g/dL | 3.0 mg/dL and 0.8 mg/dL and 1.0 mg/dL | 0.8% and 4.2%
